From US20120064008A1, “COMPOSITIONS FOR THE TREATMENT OF METASTATIC CANCER AND METHODS OF USE THEREOF” (priority 2009, published 2012)
Where two headings read alike, the source gives them in different places.

Legend:
[1] = tested on: DU145 cells; experiment: % apoptotic cells, DU145; assay type: cell-based, human; conditions: 1 μM
[2] = tested on: DU145 cells; experiment: Normalized mitotic index, DU145; assay type: cell-based, human; conditions: 1 μM
[3] = tested on: MES-SA human uterine sarcoma cells; experiment: Cell viability, MES-SA; assay type: cell-based; conditions: read-out: ED50 MES-SA
Text: (§1) Benzimidazoles retain their anti-tumor activity in these paclitaxel-resistant cells, with higher potency when compared to the parental cells (see Table 4). Cells resistant to microtubule-stabilizing drugs such as the taxanes are more susceptible to microtubule-disrupting agents. To confirm this, human uterine sarcoma MES-SA/Dx5 cells, which are cross-resistant to various chemotherapeutic agents, including the microtubule-disrupting agents vincristine and colchicine, were used.

[4] = tested on: PC3-TR cells; experiment: % apoptotic cells, PC3-TR; assay type: cell-based, human; conditions: 1 μM
[5] = tested on: PC3M cells; experiment: Annexin V/7-AAD apoptosis by flow cytometry, PC3M; assay type: cell-based, human; conditions: 1 μM, 72 hours, combination carrier
Method: All benzimidazole drugs were solubilized in the combination carrier. After 72 hours, the cells were analyzed by annexin V/7-AAD staining.
(§2) Annexin V/7-amino-actinomycin D labeling was done according to the manufacturer's instructions (BD Pharmingen, 559763) and samples were analyzed by flow cytometry. Briefly, the cells were treated for 72 hours with either vehicle or 1 μM benzimidazole drugs, solubilized in the combination carrier. Cells were trypsinized and washed with PBS before resuspending in assay binding buffer. Annexin V and 7-amino-actinomycin labeling was performed at room temperature for 15 minutes before analysis by flow cytometry (BD FACScan). Cells positively stained for annexin V in the lower right quadrant and upper right quadrant indicate early and late apoptosis, respectively.

[6] = tested on: PC3 cells; experiment: Normalized mitotic index, PC3; assay type: cell-based, human; conditions: 1 μM
[7] = tested on: PC3 cells; experiment: % apoptotic cells, PC3; assay type: cell-based, human; conditions: 1 μM
[8] = tested on: paclitaxel-resistant DU145-TR prostate cancer cells; experiment: Cyquant cell viability assay, DU145-TR; assay type: cell-based, human; conditions: Homo sapiens, read-out: ED50 DU145-TR
Method: (§3) The cytotoxic effects of paclitaxel, fenbendazole, and albendazole were compared in paclitaxel-resistant PC3-TR and DU145-TR prostate cancer cells with their paclitaxel-sensitive counterparts, PC3 and DU145 cells. Cells were treated for 72 hours with vehicle, paclitaxel, fenbendazole or albendazole in various doses. Cell viability was measured using Cyquant assay, and percent control was calculated by dividing the fluorescent reading from drug-treated cells with those from vehicle-treated cells, indicating percentage of cell survival.

[9] = tested on: PC3M human prostate cancer cells; experiment: Cyquant cell viability assay, PC3M; assay type: cell-based; conditions: for EC50: Homo sapiens, PC-3M, read-out: ED50 PC3M DMSO
Method: PC3M and PC3MLN4 cells were treated with vehicle, fenbendazole in DMSO, and fenbendazole in DMSO/NMP/TWEEN®-80/CrEL in varying doses for 72 hours. Cell viability assays using Cyquant reagent (Invitrogen, C7026) were performed as described in the literature. […] cells were seeded in 96 well plates overnight, before treated with either vehicle or benzimidazole solubilized in DMSO alone or in DMSO (12.5%)/NMP ([…])/TWEEN®-80 (25%)/Cr-EL (25%) for 72 hours. Cells were harvested by removing the media, washing once with phosphate buffered saline (PBS) and freezing at −80° C. for overnight. After thawing to room temperature, Cyquant reagent were prepared and added to the wells and the fluorescence intensity were measured with a spectrometer at 485 nm. Percent control was calculated by dividing the reading from drug-treated cells with the reading from vehicle-treated cells.
ED50 values were calculated from dose-effect analysis performed with Compusyn using data from the Cyquant cell viability assays.
ED50 values were calculated from dose-effect analysis performed with Compusyn using data from the Cyquant cell viability assays. All benzimidazoles drugs were solubilized in the combination carrier.

[10] = tested on: PC-3M cells; experiment: Normalized mitotic index (histone H3 phospho-Serine-28), PC-3M; assay type: cell-based; conditions: Homo sapiens
Text: (§4) The mitotic index for each agent was normalized against those obtained from vehicle-treated cells, and compared with the activity of paclitaxel, a known inducer of mitotic arrest.

[11] = tested on: DU145 human prostate cancer cells; experiment: Cyquant cell viability assay, DU145; assay type: cell-based; conditions: read-out: ED50 DU145
Method: as §3

[12] = tested on: PC3MLN4 cells; experiment: Annexin V/7-AAD apoptosis by flow cytometry, PC3MLN4; conditions: for apoptotic cells in PC3MLN4: 1 μM, combination carrier
Method: as §2
All benzimidazole drugs were solubilized in the combination carrier. After 72 hours, the cells were analyzed by annexin V/7-AAD staining. Cells positively stained for annexin V in the lower right quadrant and upper right quadrant indicate early and late apoptosis, respectively.

[13] = tested on: PC3-TR cells; experiment: Normalized mitotic index, PC3-TR; assay type: cell-based, human; conditions: 1 μM
[14] = tested on: PC3 human prostate cancer cells; experiment: Cyquant cell viability assay, PC3; assay type: cell-based; conditions: read-out: ED50 PC3
Method: as §3

[15] = tested on: multidrug resistant MES-SA/Dx5 human uterine sarcoma cells; experiment: Cell viability, MES-SA/Dx5; assay type: cell-based; conditions: read-out: ED50 MES-SA/Dx5
Text: as §1

[16] = tested on: AT6.1 cells; experiment: Normalized mitotic index (histone H3 phospho-Serine-28), AT6.1; assay type: cell-based; conditions: Rattus norvegicus, normalized against vehicle-treated cells
Text: as §4

[17] = tested on: DU145-TR cells; experiment: Normalized mitotic index, DU145-TR; assay type: cell-based, human; conditions: 1 μM
[18] = tested on: DU145-TR cells; experiment: % apoptotic cells, DU145-TR; assay type: cell-based, human; conditions: 1 μM

## CCCSc1ccc2nc(NC(=O)OC)[nH]c2c1 [Albendazole, albendazole]
[1]
  % Apoptotic cells (72 hours) DU145: 27%
[2]
  Normalized mitotic index (6 hours) DU145: 1.93
[3]
  EC50: 1.48 µM
[4]
  % Apoptotic cells (72 hours) PC3-TR: 25.8%
[5]
  apoptotic cells in PC3M: 22%
[6]
  Normalized mitotic index (6 hours) PC3: 1.27
[7]
  % Apoptotic cells (72 hours) PC3: 13.2%
[8]; 72 h
  EC50: 1.08 µM
[9]; 72 h
  EC50: 4.84 µM
[10]; read-out: Normalized mitotic index PC-3M, at 1 μM, normalized against vehicle-treated cells
  fold induction at 1 µM: > 1
[11]; DU-145, 72 h
  EC50: 2.41 µM
[12]; 72 hours
  apoptotic cells in PC3MLN4: 29.7%
[12]; 72 hours, annexin V
  cytotoxic activity via apoptosis in highly metastatic prostate cancer cells: induction of apoptosis
[13]
  Normalized mitotic index (6 hours) PC3-TR: 1.56
[14]; 72 h
  EC50: 4.86 µM
[15]
  EC50: 0.84 µM
[16]; read-out: Normalized mitotic index AT6.1, at 1 μM
  fold induction at 1 µM: > 1
[17]
  Normalized mitotic index (6 hours) DU145-TR: 1.13
[18]
  % Apoptotic cells (72 hours) DU145-TR: 55.8%

## COC(=O)Nc1nc2ccc(Sc3ccccc3)cc2[nH]1 [Fenbendazole, fenbendazole]
[1]
  % Apoptotic cells (72 hours) DU145: 26%
[2]
  Normalized mitotic index (6 hours) DU145: 1.47
[3]
  EC50: 3.04 µM
[4]
  % Apoptotic cells (72 hours) PC3-TR: 34.4%
[5]
  apoptotic cells in PC3M: 22.8%
[6]
  Normalized mitotic index (6 hours) PC3: 1.26
[7]
  % Apoptotic cells (72 hours) PC3: 16.1%
[8]; 72 hours, paclitaxel-resistant
  EC50: 4.21 µM
[9]; solubilized in DMSO alone, 72 hours
  EC50: 5.4 µM
[9]; solubilized in DNTC vs DMSO
  reduction in ED50, DNTC compared to DMSO, PC-3M: ~2 fold
[10]; at 1 μM, normalized against vehicle-treated cells, read-out: Normalized mitotic index PC-3M
  fold induction at 1 µM: > 1
[11]; DU-145, 72 hours
  EC50: 10.7 µM
[12]
  cytotoxic activity via apoptosis in highly metastatic prostate cancer cells: induction of apoptosis
[12]; 72 hours
  apoptotic cells in PC3MLN4: 31.4%
[13]
  Normalized mitotic index (6 hours) PC3-TR: 1.48
[14]; 72 hours
  EC50: 1.57 µM
[15]
  EC50: 1.13 µM
[16]; at 1 μM, read-out: Normalized mitotic index AT6.1
  fold induction at 1 µM: > 1
[17]
  Normalized mitotic index (6 hours) DU145-TR: 1.18
[18]
  % Apoptotic cells (72 hours) DU145-TR: 43.3%
